In patent US10610520B2, “Heterocyclic compound” (Takeda Pharmaceutical Company Limited, priority 2016, dated 2020):

molecular target: T1, His-hMAGL (recombinant polyhistidine tagged human MAGL protein) (Homo sapiens, UniProt Q99685); assay: Measurement of MAGL inhibitory activity (arachidonic acid production from 2-arachidonylglycerol, RapidFire-mass spectrometry); type: biochemical; conditions: MAGL inhibitory rate, test compound 10 μM, 60 min preincubation, 2-arachidonylglycerol substrate
T1 construct: made in house; host or cells: E. coli BL21(DE3)
T1 sequence (Q99685 1-303): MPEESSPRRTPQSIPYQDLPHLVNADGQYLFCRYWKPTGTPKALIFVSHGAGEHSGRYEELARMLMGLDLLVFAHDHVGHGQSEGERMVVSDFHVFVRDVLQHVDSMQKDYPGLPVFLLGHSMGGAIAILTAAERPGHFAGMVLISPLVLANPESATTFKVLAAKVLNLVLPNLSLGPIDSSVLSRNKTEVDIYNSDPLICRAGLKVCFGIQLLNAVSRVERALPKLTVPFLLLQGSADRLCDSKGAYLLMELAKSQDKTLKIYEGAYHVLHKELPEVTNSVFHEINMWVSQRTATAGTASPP
In short: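 Arachidonic acid formed was quantified by online solid-phase extraction and triple-quadrupole MS in negative SRM mode against a d8 internal standard. Reaction: recombinant His-hMAGL (7.5 ng/mL, pH 7.5 Tris buffer with Triton X-100 and BSA) plus 2-AG (5 μL of 150 μM stock) for 10 min at room temperature, quenched with 2% formic acid. Percent inhibition corrected for enzyme-free background.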

inhibition at 10 µM | SMILES
98% | O=C1CCC2(CN(C(=O)c3ccc(-c4ccc(C(F)(F)F)cc4)cc3)C2)N1 [Example 40, 2-((4′-(trifluoromethyl)biphenyl-4-yl)carbonyl)-2,5-diazaspiro[3.4]octan-6-one]
83% | O=C1CCC2(CN(C(=O)c3cc4cc(OCc5ccc(Cl)cc5Cl)ccc4s3)C2)N1 [Example 149, 2-((5-((2,4-dichlorobenzyl)oxy)-1-benzothiophen-2-yl)carbonyl)-2,5-diazaspiro[3.4]octan-6-one]
101% | O=C1CCC2(CN(C(=O)N3CCC(C(F)(c4ccccc4)c4ccccc4)CC3)C2)N1 [Example 237, 2-((4-(fluoro(diphenyl)methyl)piperidin-1-yl)carbonyl)-2,5-diazaspiro[3.4]octan-6-one]
100% | O=C1NC2(CCN(C(=O)c3sc4cc(OC(F)(F)F)c(F)cc4c3Cl)C2)CO1 (stereo not shown) [Example 339, 7-((3-chloro-5-fluoro-6-(trifluoromethoxy)-1-benzothiophen-2-yl)carbonyl)-3-oxa-1,7-diazaspiro[4.4]nonan-2-one]
100% | O=C1NC2(CO1)CN(C(=O)c1sc3ccc(C(F)(F)F)cc3c1C(F)F)C2 [Example 275, 2-((3-(difluoromethyl)-5-(trifluoromethyl)-1-benzothiophen-2-yl)carbonyl)-7-oxa-2,5-diazaspiro[3.4]octan-6-one]
102% | O=C1CCC2(CN(C(=O)N3CCC(COc4ccc(C(F)(F)F)cc4Cl)CC3)C2)N1 [Example 3, 2-((4-((2-chloro-4-(trifluoromethyl)phenoxy)methyl)piperidin-1-yl)carbonyl)-2,5-diazaspiro[3.4]octan-6-one]
98% | Cc1ccc(-c2ccc(C(=O)N3CC4(CCC(=O)N4)C3)cc2)c(C)c1 [Example 88, 2-((2′,4′-dimethylbiphenyl-4-yl)carbonyl)-2,5-diazaspiro[3.4]octan-6-one]
100% | O=C1NC2(CO1)CN(C(=O)[C@H]1C[C@@H](OCc3ccc(Cl)c(Cl)c3)C1)C2 [Example 353, 2-((cis-3-((3,4-dichlorobenzyl)oxy)cyclobutyl)carbonyl)-7-oxa-2,5-diazaspiro[3.4]octan-6-one]
100% | O=C1CCC2(CN(C(=O)c3sc4cc(C5=CCC(F)(F)CC5)ccc4c3Cl)C2)N1 [Example 179, 2-((3-chloro-6-(4,4-difluorocyclohex-1-en-1-yl)-1-benzothiophen-2-yl)carbonyl)-2,5-diazaspiro[3.4]octan-6-one]
100% | O=C1CCC2(CN(C(=O)c3sc4cc(-c5cc(F)ccc5F)ccc4c3Cl)C2)N1 [Example 212, 2-((3-chloro-6-(2,5-difluorophenyl)-1-benzothiophen-2-yl)carbonyl)-2,5-diazaspiro[3.4]octan-6-one]
88% | O=C1CCC2(CN(C(=O)c3ccc(-c4c(F)cc(F)cc4F)cc3)C2)N1 [Example 77, 2-((2′,4′,6′-trifluorobiphenyl-4-yl)carbonyl)-2,5-diazaspiro[3.4]octan-6-one]
101% | O=C1CCC2(CN(C(=O)N3CCC(COc4ccc5c(c4)CCCC5)CC3)C2)N1 [Example 239, 2-((4-((5,6,7,8-tetrahydronaphthalen-2-yloxy)methyl)piperidin-1-yl)carbonyl)-2,5-diazaspiro[3.4]octan-6-one]
90% | O=C1CCC2(CN(C(=O)c3ccc(-c4cccc5c4CCO5)cc3)C2)N1 [Example 75, 2-(4-(2,3-dihydro-1-benzofuran-4-yl)benzoyl)-2,5-diazaspiro[3.4]octan-6-one]
93% | Cc1c(C(=O)N2CC3(CCC(=O)N3)C2)sc2ccc([N+](=O)[O-])cc12 [Example 151, 2-((3-methyl-5-nitro-1-benzothiophen-2-yl)carbonyl)-2,5-diazaspiro[3.4]octan-6-one]
100% | O=C1CCC2(CN(C(=O)c3sc4cc(-c5cc(F)ccc5Cl)ccc4c3Cl)C2)N1 [Example 223, 2-((3-chloro-6-(2-chloro-5-fluorophenyl)-1-benzothiophen-2-yl)carbonyl)-2,5-diaspiro[3.4]octan-6-one]
100% | O=C1NC2(CO1)CN(C(=O)c1sc3c(C(F)(F)F)cccc3c1Cl)C2 [Example 257, 2-((3-chloro-7-(trifluoromethyl)-1-benzothiophen-2-yl)carbonyl)-7-oxa-2,5-diazaspiro[3.4]octan-6-one]
99% | O=C1CCC2(CN(C(=O)c3ccc(-c4cccc(C(F)(F)F)c4Cl)cc3)C2)N1 [Example 51, 2-((2′-chloro-3′-(trifluoromethyl)biphenyl-4-yl)carbonyl)-2,5-diazaspiro[3.4]octan-6-one]

inhibition at 10 µM | SMILES
100% | O=C1CCC2(CN(C(=O)N3CCC(C(F)(F)c4ccc(Cl)cc4Cl)CC3)C2)N1 [Example 244, 2-((4-((2,4-dichlorophenyl)(difluoro)methyl)piperidin-1-yl)carbonyl)-2,5-diazaspiro[3.4]octan-6-one]
99% | O=C1NC2(CO1)CN(C(=O)c1sc3cc(F)cc(OCC4CC4)c3c1Cl)C2 [Example 363, 2-((3-chloro-4-(cyclopropylmethoxy)-6-fluoro-1-benzothiophen-2-yl)carbonyl)-7-oxa-2,5-diazaspiro[3.4]octan-6-one]
96% | Cc1cccc(-c2ccc(C(=O)N3CC4(CCC(=O)N4)C3)cc2)c1C [Example 89, 2-((2′,3′-dimethylbiphenyl-4-yl)carbonyl)-2,5-diazaspiro[3.4]octan-6-one]
101% | Cc1cccc(F)c1-c1ccc2c(Cl)c(C(=O)N3CC4(CCC(=O)N4)C3)sc2c1 [Example 203, 2-((3-chloro-6-(2-fluoro-6-methylphenyl)-1-benzothiophen-2-yl)carbonyl)-2,5-diazaspiro[3.4]octan-6-one]
100% | O=C1NC2(CO1)CN(C(=O)c1sc3cc(Br)cc(F)c3c1Cl)C2 [Example 285, 2-((6-bromo-3-chloro-4-fluoro-1-benzothiophen-2-yl)carbonyl)-7-oxa-2,5-diazaspiro[3.4]octan-6-one]
100% | O=C1NC2(CO1)CN(C(=O)c1sc3cc(OC(F)(F)F)cc(F)c3c1Cl)C2 [Example 269, 2-((3-chloro-4-fluoro-6-(trifluoromethoxy)-1-benzothiophen-2-yl)carbonyl)-7-oxa-2,5-diazaspiro[3.4]octan-6-one]
101% | O=C1NC2(CO1)CN(C(=O)c1sc3cc(C(F)F)cc(C(F)(F)F)c3c1Cl)C2 [Example 291, 2-((3-chloro-6-(difluoromethyl)-4-(trifluoromethyl)-1-benzothiophen-2-yl)carbonyl)-7-oxa-2,5-diazaspiro[3.4]octan-6-one]
103% | O=C1CCC2(CN(C(=O)c3sc4cc(-c5ccccc5F)ccc4c3Cl)C2)N1 [Example 38, 2-((3-chloro-6-(2-fluorophenyl)-1-benzothiophen-2-yl)carbonyl)-2,5-diazaspiro[3.4]octan-6-one]
99% | Cc1ccccc1-c1ccc2c(Cl)c(C(=O)N3CC4(CCC(=O)N4)C3)sc2c1 [Example 185, 2-((3-chloro-6-(2-methylphenyl)-1-benzothiophen-2-yl)carbonyl)-2,5-diazaspiro[3.4]octan-6-one]
101% | Cc1cc2c(Cl)c(C(=O)N3CC4(COC(=O)N4)C3)sc2cc1OC(F)(F)F [Example 295, 2-((3-chloro-5-methyl-6-(trifluoromethoxy)-1-benzothiophen-2-yl)carbonyl)-7-oxa-2,5-diazaspiro[3.4]octan-6-one]
100% | O=C1CCC2(CN(C(=O)c3sc(-c4ccc(C5(C(F)(F)F)CC5)cc4)cc3Cl)C2)N1 [Example 247, 2-((3-chloro-5-(4-(1-(trifluoromethyl)cyclopropyl)phenyl)-2-thienyl)carbonyl)-2,5-diazaspiro[3.4]octan-6-one]
97% | O=C1CCC2(CN(C(=O)c3ccc(-c4ccc(C(F)(F)F)c(F)c4)cc3)C2)N1 [Example 45, 2-((3′-fluoro-4′-(trifluoromethyl)biphenyl-4-yl)carbonyl)-2,5-diazaspiro[3.4]octan-6-one]
99% | O=C1CCC2(CN(C(=O)c3sc4c(C(F)(F)F)cccc4c3Cl)C2)N1 [Example 255, 2-((3-chloro-7-(trifluoromethyl)-1-benzothiophen-2-yl)carbonyl)-2,5-diazaspiro[3.4]octan-6-one]
101% | O=C1NC2(CO1)CN(C(=O)c1sc3cc(C4=CCC(F)(F)CC4)cc(F)c3c1Cl)C2 [Example 309, 2-((3-chloro-6-(4,4-difluorocyclohex-1-en-1-yl)-4-fluoro-1-benzothiophen-2-yl)carbonyl)-7-oxa-2,5-diazaspiro[3.4]octan-6-one]
96% | O=C1CCC2(CN(C(=O)c3ccc(-c4ccc(C(F)(F)F)cc4Cl)cc3)C2)N1 [Example 47, 2-((2′-chloro-4′-(trifluoromethyl)biphenyl-4-yl)carbonyl)-2,5-diazaspiro[3.4]octan-6-one]
100% | O=C1CCC2(CN(C(=O)c3sc4cc(-c5cccnc5C(F)(F)F)ccc4c3Cl)C2)N1 [Example 230, 2-((3-chloro-6-(2-(trifluoromethyl)pyridin-3-yl)-1-benzothiophen-2-yl)carbonyl)-2,5-diazaspiro[3.4]octan-6-one]
98% | O=C1CCC2(CN(C(=O)c3sc4cc(Br)ccc4c3C3CC3)C2)N1 [Example 245, 2-((6-bromo-3-cyclopropyl-1-benzothiophen-2-yl)carbonyl)-2,5-diazaspiro[3.4]octan-6-one]
